The text below walks through data of patent US12071469B2, “Peptide compounds for suppressing inflammation” (Duke University, priority 2011, dated 2024).

Experiment [1] deals with primary rat neuronal cortical culture exposed to NMDA. Description: Neuroprotection from NMDA mediated cell death in primary neuronal culture (LDH release). It is filed as cell-based. Particulars: for reduced LDH release: concentration not given. As to the method: Peptides of 5 amino acids in length were applied to one or more samples of cells in parallel at concentrations ranging from about 0 to about 50 μM, such as 0.3, 3, and 30 μM. The peptides AL-10-1 (SEQ ID NO:18) and VL-17-9 (SEQ ID NO:19), which are longer peptides (12 amino acids each) were used as negative and positive controls, respectively. A series of peptides were screened in primary rat neuronal cortical culture exposed to NMDA using the method described in Aono et al., Neuroscience (2003) 116:437 and Aono et al., Neurobiology of Disease (2002) 11:214, both of which are incorporated by reference in their entirety (see Table 2). Neuroprotection from NMDA mediated cell death in primary neuronal culture was expressed as percentage decrease in LDH, 24 hours after exposure to NMDA compared to vehicle treated cultures (Table 2). LDH release is indicative of neuronal death after NMDA exposure. The peptide VR-55 (SEQ ID NO:4) reduced NMDA mediated excitotoxic cell death by approximately 19% at a concentration of 1 μM. […] The positive control peptide VL-17-9 reduced LDH release by 31%.
Dose response of the neuroprotection from NMDA excitotoxicity in primary neuronal culture was determined for ApoE mimetic peptide VR-55 (SEQ ID NO: 4). […] “0” indicates less than 5% suppression; “+” indicates 5-10% suppression; “++” indicates 11-20% suppression; and “+++” indicates greater than 20% suppression. In addition to VL-17-9, several other candidates had greater than 20% suppression, including VR-55, VL-5-1, VL-5-2 and VR-52.

The subject of experiment [2] is mixed glial primary culture. Description: Suppression of TNF-α release in mixed glial primary culture after exposure to LPS. The format is cell-based, murine. Particulars: FIGS. 11A and 11B. As to the method:
(§1) In vitro methods have been developed using cultured cells for evaluating the ability of a compound, such as a peptide, to suppress glial activation. Laskowitz et al., (2001) Exp. Neurol., 167:74-85. Glial cell cultures were grown and maintained under standard conditions. Cultured glial cells may include primary murine mixed glial cell cultures, murine BV-2 microglial cells, and human C3 microglial cells. Adherent glial cells were washed with OptiMEM® medium (available from Invitrogen Corp.) to remove serum and covered with fresh OptiMEM® medium containing peptide.
Larger peptides or proteins may need to be tested at higher concentrations to observe measurable suppression of glial activation. If using primary murine cells and BV-2 cells, cells are stimulated with 100 ng/ml E. coli LPS (available from Sigma-Aldrich Co.), and supernatant is collected six hours after LPS stimulation and assayed for nitrite (using a colorimetric Griess reagent system, available from Promega Corp.) and/or TNF-α (using a solid-phase ELISA kit, available from Invitrogen Corp.). If using human C3 cells, cells are stimulated with 200 μg/ml polyinosinic acid 5′ (available from Sigma-Aldrich Co.), and supernatant is collected 5 days after stimulation and assayed for TNF-α using a solid-phase ELISA kit (available from Invitrogen Corp.).
The protective activity against brain injury-downregulating CNS inflammatory response was determined for ApoE mimetic peptides, VR-55 (SEQ ID NO: 4), VL-5-1 (SEQ ID NO: 5) and VL-5-3 (SEQ ID NO: 10).

The test system of experiment [3] is mice with traumatic brain injury. Description: Rotorod vestibulomotor function after traumatic brain injury. To be noted: 0.05 mg/kg or 0.2 mg/kg iv at 2 h and 6 h after traumatic brain injury. The format is in vivo, mouse. On the procedure: An experimental murine model for traumatic brain injury was developed. Laskowitz, et al. (2010) J. Neurotrauma, 27:1983-95. Male mice (age 12-14 weeks) were anesthetized with 4.3% isoflurane in oxygen in an anesthesia induction box for 90 seconds. The trachea was intubated and the lungs mechanically ventilated with 1.4% isoflurane in a 50/50 mixture of oxygen and nitrogen. Body temperature was maintained at 37° C. using surface heating/cooling. The top of the skull was exposed by a midline incision to identify anatomical landmarks, and a concave 3-mm metallic disc was secured to the skull surface with an adhesive, directly midline and just caudal to the bregma. The disc diffused the energy of impact and reduced the incidence of depressed skull fracture to less than 10%. After general anesthesia, mice were positioned in a stereotactic device and the skull was exposed. A pneumatic impactor (diameter: 2.0 mm; available from Air-Power, Inc.) discharged at 6.8±0.2 m/s with a head displacement of 3 mm was used to deliver a single midline impact to the disc surface.
An experimental procedure for measuring neurological deficits was developed. An automated rotorod (available from Ugo Basile North America, Inc.) was used to assess vestibulomotor function. On the day before experimental induction of a neurological condition or injury (such as, for example, traumatic brain injury or intracerebral hemorrhage as described above), mice under went two consecutive conditioning trials at a set rotational speed (16 revolutions per minute) for 60 seconds followed by three additional trials with an accelerating rotational speed. The average time to fall from the rotating cylinder in the latter three trials was recorded as baseline latency. After injury, mice under went consecutive daily testing with three trials of accelerating rotational speed (intertribal interval of 15 minutes). Average latency to fall from the rod was recorded, and mice unable to grip the rod were scored with a latency of 0 seconds.
Groups of mice received either an ApoE mimetic peptide (SEQ ID NO:3; 0.05 mg/kg or 0.2 mg/kg) or carrier (saline) by intravenous tail vein injection at 2 hours and again at 6 hours after traumatic brain injury induced as described in Example 3. Each mouse was tested for vestibulomotor function by rotorod latency measured before and after injury, as described in Example 3.
Groups of mice received either an ApoE mimetic peptide (SEQ ID NO:4; 0.05 mg/kg) or carrier (saline) by intravenous tail vein injection at 2 hours and again at 6 hours after traumatic brain injury induced as described in Example 3. Each mouse was tested for vestibulomotor function by rotorod latency measured before and after injury, as described in Example 3. […]

Experiment [4] concerns BV-2 murine microglial cells. Description: Suppression of LPS-stimulated TNF-α production in BV-2 microglial cells (ELISA). The format is cell-based. Particulars: peptide 0.3, 3 or 30 μM; LPS 100 ng/mL, six hours; FIG. 1; listed as SEQ ID NO:3. As to the method:
Cultured BV-2 murine microglial cells were incubated with either the indicated concentrations of peptide (SEQ ID NO:3) or a negative control peptide (SEQ ID NO:13) and stimulated with lipopolysaccharide (LPS) (100 ng/mL) for six hours. After six hours, supernatants were harvested and the concentration of secreted TNF-α was measured by ELISA (**p<0.01; ANOVA).
as §1
Larger peptides or proteins may need to be tested at higher concentrations to observe measurable suppression of glial activation. […]
Murine BV-2 cultures were prepared and used to evaluate suppression of microglial activation as described in Example 1. […] Each sample was stimulated with LPS and assessed for TNF-α production as described in Example 1.

Entries after “also recorded” stand apart in the source; their conditions may differ.

Regarding “Ac-ASHLRKLRKRLL-NH2 [AL-10-1, reference compound]”, in experiment [1] (peptide 1 μM), the “percentage decrease in LDH, 24 hours after exposure to NMDA compared to vehicle treated cultures” value (from here on “percentage decrease in LDH, 24 hours”) is reported as −6.21% and the “suppression of LDH release, cumulative data (class)” value (from here on “suppression of LDH release”) was 0 (less than 5% suppression).
For “Ac-LRVRLASLLRKL-NH2 [VL-17-9, longer peptide (12 amino acids) used as positive control, reference compound]”, the “reduced LDH release” value in experiment [1] amounted to 31%. In experiment [1] (peptide 0.1 μM), the “percentage decrease in LDH, 24 hours” value is 16.19%. In experiment [1] (peptide 1 μM), the “percentage decrease in LDH, 24 hours” value was found to be 30.95% and the “suppression of LDH release” value is reported as “+++ (greater than 20% suppression)”.
For the substance Ac-RARRL-NH2 [RL-5-2], in experiment [1] (peptide 1 μM), the “percentage decrease in LDH, 24 hours” value is reported as −5.23% and the “suppression of LDH release” value is 0 (less than 5% suppression).
For the substance Ac-RHKKL-NH2 [RL-5-1], in experiment [1] (peptide 1 μM), the “percentage decrease in LDH, 24 hours” value was −2.85% and the “suppression of LDH release” value was “++ (11-20% suppression)”.
As to Ac-RHKRR-NH2 [RR-5-1], in experiment [1] (peptide 1 μM), the “percentage decrease in LDH, 24 hours” value was determined as 7.50% and the “suppression of LDH release” value was “+ (5-10% suppression)”.
For Ac-RSKKL-NH2 [RL-5-3], in experiment [1] (peptide 1 μM), the “percentage decrease in LDH, 24 hours” value is listed as −20.80% and the “suppression of LDH release” value is given as 0 (less than 5% suppression).
For the substance Ac-RSKRR-NH2 [RR-5-2], in experiment [1] (peptide 1 μM), the “percentage decrease in LDH, 24 hours” value was 0.08% and the “suppression of LDH release” value is recorded as 0 (less than 5% suppression).
For the substance Ac-VARKL-NH2 [VL-5-1], the “release of inflammatory cytokine TNF-α” value in experiment [2] is listed as “inhibition of microglial TNF-α secretion; also recorded: suppress the release of inflammatory cytokine TNF-α”. Further, the “percentage decrease in LDH, 24 hours” value in experiment [1] (peptide 0.1 μM) stood at 18.57%; in experiment [1] (peptide 0.3 μM), 0.29%; in experiment [1] (peptide 1 μM), 24.48%. For the same substance, the “suppression of LDH release” value in experiment [1] (peptide 1 μM) is “+++ (greater than 20% suppression)”.
For the substance Ac-VARKL-NH2 [VL-5-2], the “reduced LDH release” value in experiment [1] turned out to be 31%. Also, in experiment [1] (peptide 1 μM), the “percentage decrease in LDH, 24 hours” value is given as 34.26% and the “suppression of LDH release” value is reported as “+++ (greater than 20% suppression)”.
As for Ac-VARRL-NH2 [VL-5-3], the “release of inflammatory cytokine TNF-α” value in experiment [2] is “inhibition of microglial TNF-α secretion; also recorded: suppress the release of inflammatory cytokine TNF-α”. The entries for the “percentage decrease in LDH, 24 hours” value in experiment [1] (peptide 0.1 μM), in experiment [1] (peptide 0.3 μM) and in experiment [1] (peptide 1 μM) were −19.04%, −16.70% and 11.50%, respectively. Moreover, the “suppression of LDH release” value in experiment [1] (peptide 1 μM) is reported as “++ (11-20% suppression)”.
Regarding “Ac-VSKKR-NH2 [VR-54, negative control peptide, reference compound]”, in experiment [1] (peptide 1 μM), the “percentage decrease in LDH, 24 hours” value was −15.91% and the “suppression of LDH release” value is given as “++ (11-20% suppression)”.
As to Ac-VSKRR-NH2 [VR-53], in experiment [3], the “durability of effect on rotorod latency” value is given as “durable through the five-day testing period”. Also, the “vestibulomotor performance (rotorod latency) compared to carrier” value in experiment [3] (FIG. 2, listed as SEQ ID NO:3) is listed as “significantly improved vestibulomotor performance”. Further, in experiment [1] (peptide 1 μM), the “percentage decrease in LDH, 24 hours” value turned out to be 7.03% and the “suppression of LDH release” value is “+ (5-10% suppression)”. In addition, the “TNF-α production relative to untreated cells or negative control peptide” value in experiment [4] is “inhibition of microglial TNF-α secretion; also recorded: decreased TNF-α production”.
For Ac-VSRKR-NH2 [VR-52], in experiment [1] (peptide 1 μM), the “percentage decrease in LDH, 24 hours” value was determined as 12.63% and the “suppression of LDH release” value is “+++ (greater than 20% suppression)”.
